From US20120211082A1, “PHOTOELECTRIC CONVERSION DEVICE AND SOLAR CELL USING THE SAME” (MITSUBISHI CHEMICAL CORPORATION, priority 2009, published 2012)

What was measured:
Format in all cases: physicochemical
[1] = Solubility of fullerene compounds in toluene; details: mixed at 40° C., returned to 25° C.
Procedure: With regard to the solubility of various fullerene compounds, a powder of a fullerene derivative and toluene were mixed at 40° C. The amount of toluene used at this time was a minimum amount at which dissolution was confirmed at 40° C. Thereafter, temperature was returned to 25° C. and no precipitation was confirmed. The concentration of the toluene on this occasion was regarded as the solubility. In the case where precipitation was observed, toluene was further added until dissolution, and the concentration of the toluene at the time when dissolution was finally confirmed was regarded as the solubility.

[2] = Solubility of buffer material in methanol at room temperature
[3] = Solubility in THF noted during cyclic voltammetry; details: cyclic voltammetry conditions
Procedure: Thus, using a mixed solvent of o-dichlorobenzene and acetonitrile (4:1, volume ratio) instead of THF, the cyclic voltammetry was performed.

Compound | Solubility (% by weight) [1] [% by weight] | Solubility (MeOH, room temperature)/% by weight [2] [% by weight] | Solubility in THF [3]
1-(3-methoxycarbonyl)propyl-1-phenyl(6,6)-C60 [PCBM] | 1.5 |  | 
Cc1cc(-c2ccccc2)c2ccc3c(-c4ccccc4)cc(C)nc3c2n1 [BCP, 2,9-dimethyl-4,7-diphenyl-1,10-phenanthroline] |  | 0.1 | 
O=P(c1ccccc1)(c1ccccc1)c1ccc2ccccc2c1-c1c(P(=O)(c2ccccc2)c2ccccc2)ccc2ccccc12 [BINAPO] |  | 4 | 
c12c3c4c5c1c1c6c7c2c2c8c3c3c9c4c4c%10c5c5c1c1c6c6c%11c7c2c2c7c8c3c3c8c9c4c4c9c%10c5c5c1c1c6c6c%11c2c2c7c3c3c8c4c4c9c5c1c1c6c2c3c41 [C60, fullerene] | 0.3 |  | sparingly soluble
c1ccc(-c2cc(-c3ccc4ccccc4c3)nc3c2ccc2c(-c4ccccc4)cc(-c4ccc5ccccc5c4)nc23)cc1 [NBPhen] |  | <0.01 | 
O=P(c1ccccc1)(c1ccccc1)c1cccc(-c2cc(-c3ccccc3)cc(-c3cccc(P(=O)(c4ccccc4)c4ccccc4)c3)n2)c1 [PO(TPP)PO] |  | >8 | 
O=P(c1ccccc1)(c1ccccc1)c1ccc2c(c1)c1cc(P(=O)(c3ccccc3)c3ccccc3)ccc1n2-c1ccccc1 [POCzPO] |  | >8 | 
O=P(c1ccccc1)(c1ccccc1)c1c(F)c(F)c(-c2c(F)c(F)c(P(=O)(c3ccccc3)c3ccccc3)c(F)c2F)c(F)c1F [POFBPO] |  | 1 | 
O=P(c1ccccc1)(c1ccccc1)c1ccccc1 [POPh3] |  | >5.0 | 
O=P(c1ccccc1)(c1ccc2ccc3cccc4ccc1c2c34)c1ccc2ccc3cccc4ccc1c2c34 [POPy2] |  | <0.01 | 
O=P(c1ccccc1)(c1ccccc1)c1ccc2c(c1)C1(c3ccccc3-c3ccccc31)c1cc(P(=O)(c3ccccc3)c3ccccc3)ccc1-2 [POSFPO] |  | 0.5 | 
c1ccc(-n2c(-c3cc(-c4nc5ccccc5n4-c4ccccc4)cc(-c4nc5ccccc5n4-c4ccccc4)c3)nc3ccccc32)cc1 [TPBi] |  | <0.01 | 
